Experimental data reported in patent US8227428B2, “Anti-infammatory macrolide” (Glaxo Group Limited, priority 2009, dated 2012).

Assays:
[1] = In vitro stability in human whole blood; type: in vitro ADME; settings: 37° C., 2000 ng/mL, over 24 hours
Method: (§1) An in vitro stability study in human whole blood and plasma is carried out over 24 hours at 37° C. Drug-free freshly collected human blood (CPD—citrate-phosphate-dextrose is used for all blood collections as anticoagulant) and plasma are spiked with a previously prepared standard solution of test compound to a final concentration of 2000 ng/mL. For each compound blood and plasma are spiked in duplicate and incubated for 24 hours. Two separate aliquots of blood or plasma (50 μL) are sampled from each incubation mixture at 0, 15, 30, 60, 120, 240 and 1440 minutes. All aliquots are mixed with an equal volume of water (50 μL) and extracted with 300 μL of acetonitrile/methanol (2:1) containing internal standard (roxithromycin). The samples are then vortexed, centrifuged and analysed by LC/MS/MS (MRM mode). Results are expressed as the percentage of compound remaining, expressed as the ratio of analyte/internal standard.

[2] = In vitro stability in human plasma; type: in vitro ADME; settings: 37° C., 2000 ng/mL, over 24 hours
Method: as §1

[3] = Stability in buffer solutions pH 2 to pH 8 at 25° C.; type: physicochemical
Method: Stability in buffer solutions pH 2 to pH 8 at 25° C., and in bio-relevant media (SGF pH 1.6, Fasted SIF pH 6.5 and Fed SIF pH 5.0) at 37° C., during 24 hours is monitored. The samples are analysed by LC/MS.
Buffer Solutions and Physiologically Relevant Media Used in Stability Assay:
LC Conditions: Instrument HP1100
Column: Waters XBridge C18, 2.1×50 mm, 3.5 μm
Guard column: Waters XBridge C18, 2.1×10 mm, 3.5 μm
• A) 0.1% HCOOH/H2O • B) 0.1% HCOOH/CH3CN Gradient Timetable: […]
Flow: 0.3 mL/min Column temp.: 25° C. Sample temp.: 25° C. (for stability assay in buffer solutions) • 37° C. (for stability assay in bio-relevant media) Injector volume: 3 μL (without injection program) MS Conditions: Instrument HP MS API-ES, positive ion mode Mass Range: 150-1500 Fragmentor: 100 Gain: 1.0 Treshold: 150 Step size: 0.20 Gas Temperature: 350° C. Drying Gas Flow: 13 L/min Nebulizer Pressure: 35 psig Capillary Voltage Positive 4000 V • Negative 4000 V Sample Preparation: a) For Stability Assay in Buffer Solutions
Compounds are dissolved in CH3CN to produce a 1 mg/mL stock solution. The stock solution is diluted to a concentration of 0.2 mg/mL (1 mL solution in 4 mL buffer) with appropriate buffer to produce a working solution.
Each solution at each pH is then dispatched into vials that are sealed and stored at room temperature in order to be analyzed at the proper time point. Before analysis, pH values of prepared sample solutions are checked and adjusted if neccessary.

SMILES: CC[C@H]1OC(=O)[C@H](C)[C@@H](O[C@H]2C[C@@](C)(OC)[C@@H](OC(=O)CN(CC)CC)[C@H](C)O2)[C@H](C)[C@@H](O[C@@H]2O[C@H](C)C[C@H](N(C)C)[C@H]2O)[C@](C)(OC)C[C@@H](C)C(=O)N[C@H](C)[C@@H](O)[C@]1(C)O [Example 3, 4″-O-(2-diethylaminoethanoyl)-6-O-methyl-9a-aza-9a-homoerythromycin A]
- stability in whole blood [1]: stable
- stability in plasma [2]: stable
- stability in buffers pH 2 to 8 ([3]; 25° C., during 24 hours): showed stability
- Percentage (Area %) of the compound observed in buffers ([3]; pH 2, 25° C., 2 h): 99.4 Area %
- Percentage (Area %) of the compound observed in buffers ([3]; pH 2, 25° C., 4 h): 99.5 Area %
- Percentage (Area %) of the compound observed in buffers ([3]; pH 2, 25° C., 6 h): 99.5 Area %
- Percentage (Area %) of the compound observed in buffers ([3]; pH 2, 25° C., 8 h): 99.5 Area %
- Percentage (Area %) of the compound observed in buffers ([3]; pH 2, 25° C., 12 h): 99.6 Area %
- Percentage (Area %) of the compound observed in buffers ([3]; pH 2, 25° C., 14 h): 99.6 Area %
- Percentage (Area %) of the compound observed in buffers ([3]; pH 2, 25° C., 18 h): 99.6 Area %
- Percentage (Area %) of the compound observed in buffers ([3]; pH 2, 25° C., 20 h): 99.5 Area %
- Percentage (Area %) of the compound observed in buffers ([3]; pH 2, 25° C., 22 h): 99.5 Area %
- Percentage (Area %) of the compound observed in buffers ([3]; pH 2, 25° C., 24 h): 99.5 Area %
- Percentage (Area %) of the compound observed in buffers ([3]; pH 2, 25° C., Initial): 100 Area %
- Percentage (Area %) of the compound observed in buffers ([3]; pH 3, 25° C., 2 h): 99.8 Area %
- Percentage (Area %) of the compound observed in buffers ([3]; pH 3, 25° C., 4 h): 99.6 Area %
- Percentage (Area %) of the compound observed in buffers ([3]; pH 3, 25° C., 6 h): 99.5 Area %
- Percentage (Area %) of the compound observed in buffers ([3]; pH 3, 25° C., 8 h): 99.8 Area %
- Percentage (Area %) of the compound observed in buffers ([3]; pH 3, 25° C., 12 h): 99.6 Area %
- Percentage (Area %) of the compound observed in buffers ([3]; pH 3, 25° C., 14 h): 99.8 Area %
- Percentage (Area %) of the compound observed in buffers ([3]; pH 3, 25° C., 18 h): 99.7 Area %
- Percentage (Area %) of the compound observed in buffers ([3]; pH 3, 25° C., 20 h): 99.6 Area %
- Percentage (Area %) of the compound observed in buffers ([3]; pH 3, 25° C., 22 h): 99.4 Area %
- Percentage (Area %) of the compound observed in buffers ([3]; pH 3, 25° C., 24 h): 99.4 Area %
- Percentage (Area %) of the compound observed in buffers ([3]; pH 3, 25° C., Initial): 100 Area %
- Percentage (Area %) of the compound observed in buffers ([3]; pH 4, 25° C., 2 h): 99.1 Area %
- Percentage (Area %) of the compound observed in buffers ([3]; pH 4, 25° C., 4 h): 99.0 Area %
- Percentage (Area %) of the compound observed in buffers ([3]; pH 4, 25° C., 6 h): 99.1 Area %
- Percentage (Area %) of the compound observed in buffers ([3]; pH 4, 25° C., 8 h): 99.2 Area %
- Percentage (Area %) of the compound observed in buffers ([3]; pH 4, 25° C., 12 h): 99.2 Area %
- Percentage (Area %) of the compound observed in buffers ([3]; pH 4, 25° C., 14 h): 99.2 Area %
- Percentage (Area %) of the compound observed in buffers ([3]; pH 4, 25° C., 18 h): 99.2 Area %
- Percentage (Area %) of the compound observed in buffers ([3]; pH 4, 25° C., 20 h): 98.9 Area %
- Percentage (Area %) of the compound observed in buffers ([3]; pH 4, 25° C., 22 h): 99.1 Area %
- Percentage (Area %) of the compound observed in buffers ([3]; pH 4, 25° C., 24 h): 99.2 Area %
- Percentage (Area %) of the compound observed in buffers ([3]; pH 4, 25° C., Initial): 100 Area %
- Percentage (Area %) of the compound observed in buffers ([3]; pH 5, 25° C., 2 h): 100 Area %
- Percentage (Area %) of the compound observed in buffers ([3]; pH 5, 25° C., 4 h): 99.9 Area %
- Percentage (Area %) of the compound observed in buffers ([3]; pH 5, 25° C., 6 h): 99.9 Area %
- Percentage (Area %) of the compound observed in buffers ([3]; pH 5, 25° C., 8 h): 99.9 Area %
- Percentage (Area %) of the compound observed in buffers ([3]; pH 5, 25° C., 12 h): 99.9 Area %
- Percentage (Area %) of the compound observed in buffers ([3]; pH 5, 25° C., 14 h): 99.9 Area %
- Percentage (Area %) of the compound observed in buffers ([3]; pH 5, 25° C., 18 h): 99.9 Area %
- Percentage (Area %) of the compound observed in buffers ([3]; pH 5, 25° C., 20 h): 99.8 Area %
- Percentage (Area %) of the compound observed in buffers ([3]; pH 5, 25° C., 22 h): 99.9 Area %
- Percentage (Area %) of the compound observed in buffers ([3]; pH 5, 25° C., 24 h): 99.9 Area %
- Percentage (Area %) of the compound observed in buffers ([3]; pH 5, 25° C., Initial): 100 Area %
- Percentage (Area %) of the compound observed in buffers ([3]; pH 6, 25° C., 2 h): 100 Area %
- Percentage (Area %) of the compound observed in buffers ([3]; pH 6, 25° C., 4 h): 100 Area %
- Percentage (Area %) of the compound observed in buffers ([3]; pH 6, 25° C., 6 h): 100 Area %
- Percentage (Area %) of the compound observed in buffers ([3]; pH 6, 25° C., 8 h): 100 Area %
- Percentage (Area %) of the compound observed in buffers ([3]; pH 6, 25° C., 12 h): 99.9 Area %
- Percentage (Area %) of the compound observed in buffers ([3]; pH 6, 25° C., 14 h): 99.8 Area %
- Percentage (Area %) of the compound observed in buffers ([3]; pH 6, 25° C., 20 h): 99.7 Area %
- Percentage (Area %) of the compound observed in buffers ([3]; pH 6, 25° C., 22 h): 99.7 Area %
- Percentage (Area %) of the compound observed in buffers ([3]; pH 6, 25° C., 24 h): 99.7 Area %
- Percentage (Area %) of the compound observed in buffers ([3]; pH 6, 25° C., Initial): 100 Area %
- Percentage (Area %) of the compound observed in buffers ([3]; pH 7, 25° C., 2 h): 100 Area %
- Percentage (Area %) of the compound observed in buffers ([3]; pH 7, 25° C., 4 h): 99.9 Area %
- Percentage (Area %) of the compound observed in buffers ([3]; pH 7, 25° C., 6 h): 99.9 Area %
- Percentage (Area %) of the compound observed in buffers ([3]; pH 7, 25° C., 8 h): 99.9 Area %
- Percentage (Area %) of the compound observed in buffers ([3]; pH 7, 25° C., 12 h): 99.7 Area %
- Percentage (Area %) of the compound observed in buffers ([3]; pH 7, 25° C., 14 h): 99.7 Area %
- Percentage (Area %) of the compound observed in buffers ([3]; pH 7, 25° C., 18 h): 99.8 Area %
- Percentage (Area %) of the compound observed in buffers ([3]; pH 7, 25° C., 20 h): 98.8 Area %
- Percentage (Area %) of the compound observed in buffers ([3]; pH 7, 25° C., 22 h): 99.7 Area %
- Percentage (Area %) of the compound observed in buffers ([3]; pH 7, 25° C., 24 h): 98.7 Area %
- Percentage (Area %) of the compound observed in buffers ([3]; pH 7, 25° C., Initial): 100 Area %
- Percentage (Area %) of the compound observed in buffers ([3]; pH 8, 25° C., 2 h): 99.9 Area %
- Percentage (Area %) of the compound observed in buffers ([3]; pH 8, 25° C., 4 h): 99.9 Area %
- Percentage (Area %) of the compound observed in buffers ([3]; pH 8, 25° C., 6 h): 99.9 Area %
- Percentage (Area %) of the compound observed in buffers ([3]; pH 8, 25° C., 8 h): 99.7 Area %
- Percentage (Area %) of the compound observed in buffers ([3]; pH 8, 25° C., 12 h): 99.5 Area %
- Percentage (Area %) of the compound observed in buffers ([3]; pH 8, 25° C., 14 h): 99.4 Area %
- Percentage (Area %) of the compound observed in buffers ([3]; pH 8, 25° C., 18 h): 98.4 Area %
- Percentage (Area %) of the compound observed in buffers ([3]; pH 8, 25° C., 20 h): 98.3 Area %
- Percentage (Area %) of the compound observed in buffers ([3]; pH 8, 25° C., 22 h): 98.2 Area %
- Percentage (Area %) of the compound observed in buffers ([3]; pH 8, 25° C., 24 h): 98.2 Area %
- Percentage (Area %) of the compound observed in buffers ([3]; pH 8, 25° C., Initial): 100 Area %
